The assay addresses T1, AsPC-1 HiBiT-KRASG12D (Homo sapiens, UniProt P01116, G12D).
T1 construct: insert the HiBiT tag onto the N-terminus of one or more of the endogenous KRAS alleles; endogenous in cells; host or cells: AsPC-1 (ATCC CRL-1682), CRISPR-Cas9 knock-in clone, one tagged allele
Briefly: HiBiT degradation assay (G12D), AsPC-1 HiBiT-KRASG12D cells. The format is cell-based. The settings on record: 24 hours treatment; for Dmax: ASPC1, AsPC-1 HiBiT-KRASG12D cells, maximum degradation observed; for DC50: AsPC-1 HiBiT-KRASG12D cells, HiBiT luminescence. The procedure, abridged:
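HiBiT-KRAS abundance was read as Nano-Glo HiBiT lytic luminescence (45 min, room temperature) after a PBS wash. Before that, a 4 h alamar blue fluorescence read, normalized to DMSO, monitored viability. Treatment lasted 24 hours at 37 °C, in triplicate, using AsPC-1 cells with endogenous N-terminally HiBiT-tagged KRAS G12D.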
Background: HiBiT is a short tag that completes a luciferase, so light tracks the accessible tagged protein.

The Dmax is the largest share of the target that was removed. Read a high Dmax as a fuller loss of target. As a reminder, the DC50 is the concentration at which degradation of the target reaches its halfway point. Read a high DC50 as degradation only at high concentration.

T1 sequence (P01116 1-188 isoform P01116-2 G12D): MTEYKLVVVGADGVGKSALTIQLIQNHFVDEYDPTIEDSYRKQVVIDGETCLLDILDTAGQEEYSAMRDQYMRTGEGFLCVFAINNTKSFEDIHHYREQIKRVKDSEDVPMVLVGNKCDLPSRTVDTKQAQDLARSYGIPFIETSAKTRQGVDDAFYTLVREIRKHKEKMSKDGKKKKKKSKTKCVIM

For the compound `CCc1cccc2cc(O)cc(-c3ncc4c(N5CCCCCC5)nc(OC[C@]56CCCN5[C@H](COC(=O)N5CCN(c7cc([C@H](C(=O)N8C[C@H](O)C[C@H]8C(=O)N[C@@H](C)c8ccc(-c9scnc9C)cc8)C(C)C)on7)CC5)CC6)nc4c3F)c12` (relative stereo) [Compound 278, [(3S,8R)-8-[[4-(azepan-1-yl)-7-(8-ethyl-3-hydroxy-1-naphthyl)-8-fluoro-pyrido[4,3-d]pyrimidin-2-yl]oxymethyl]-1,2,3,5,6,7-hexahydropyrrolizin-3-yl]methyl4-[5-[(1R)-1-[(2S,4R)-4-hydroxy-2-[[(1S)-1-[4-(4-methylthiazol-5-yl)phenyl]ethyl]carbamoyl]pyrrolidine-1-carbonyl]-2-methyl-propyl]isoxazol-3-yl]piperazine-1-carboxylate], the Dmax fell in the range of 80 to 100% and the DC50 was less than 600 nM.

In the case of `C#Cc1c(F)ccc2cc(O)cc(-c3ncc4c(N5CC6CCC(C5)N6)nc(OCCN5CCC(CC6CCN(c7cc([C@H](C(=O)N8C[C@H](O)C[C@H]8C(=O)N[C@@H](C)c8ccc(-c9scnc9C)cc8)C(C)C)on7)CC6)CC5)nc4c3F)c12` (relative stereo) [Compound 307, (2S,4R)-1-((R)-2-(3-(4-((1-(2-((4-((1R,5S)-3,8-diazabicyclo[3.2.1]octan-3-yl)-7-(8-ethynyl-7-fluoro-3-hydroxynaphthalen-1-yl)-8-fluoropyrido[4,3-d]pyrimidin-2-yl)oxy)ethyl)piperidin-4-yl)methyl)piperidin-1-yl)isoxazol-5-yl)-3-methylbutanoyl)-4-hydroxy-N—((S)-1-(4-(4-methylthiazol-5-yl)phenyl)ethyl)pyrrolidine-2-carboxamide], the maximal degradation (Dmax) fell in the range of 80 to 100% and the half-maximal degradation concentration (DC50) is less than 600 nM.

With `Cc1ncsc1-c1ccc([C@H](C)NC(=O)[C@@H]2C[C@@H](O)CN2C(=O)[C@@H](c2cc(N3CCN(C(=O)OC[C@@H]4CC[C@]5(COc6nc(N7CC8CCC(C7)N8)c7cc(Cl)c(-c8cc(O)cc9ccccc89)c(F)c7n6)CCCN45)CC3)no2)C(C)C)cc1` (relative stereo) [Compound 328, [(3S,8S)-8-[[6-chloro-4-(3,8-diazabicyclo[3.2.1]octan-3-yl)-8-fluoro-7-(3-hydroxy-1-naphthyl)quinazolin-2-yl]oxymethyl]-1,2,3,5,6,7-hexahydropyrrolizin-3-yl]methyl 4-[5-[(1R)-1-[(2S,4R)-4-hydroxy-2-[[(1S)-1-[4-(4-methylthiazol-5-yl)phenyl]ethyl]carbamoyl]pyrrolidine-1-carbonyl]-2-methyl-propyl]isoxazol-3-yl]piperazine-1-carboxylate], the greatest degradation seen (Dmax) lay in the range of 80 to 100% and the DC50 is less than 600 nM.

On to `Cc1ncsc1-c1ccc([C@H](C)NC(=O)[C@@H]2C[C@@H](O)CN2C(=O)[C@@H](c2cc(N3CCN(C(=O)OC[C@@H]4CC[C@@]5(COc6nc(N7CC8CCC(C7)N8)c7cc(Cl)c(-c8cc(O)cc9ccccc89)c(F)c7n6)CCCN45)CC3)no2)C(C)C)cc1` (relative stereo) [Compound 330, [(3R,8S)-8-[[6-chloro-4-(3,8-diazabicyclo[3.2.1]octan-3-yl)-8-fluoro-7-(3-hydroxy-1-naphthyl)quinazolin-2-yl]oxymethyl]-1,2,3,5,6,7-hexahydropyrrolizin-3-yl]methyl 4-[5-[(1R)-1-[(2S,4R)-4-hydroxy-2-[[(1S)-1-[4-(4-methylthiazol-5-yl)phenyl]ethyl]carbamoyl]pyrrolidine-1-carbonyl]-2-methyl-propyl]isoxazol-3-yl]piperazine-1-carboxylate], for which the Dmax fell in the range of 60 to 80% and the DC50 is less than 600 nM.

In turn, `CCc1cccc2cccc(-c3ncc4c(N5CCCCCC5)nc(OC[C@]56CCCN5[C@H](COC(=O)N5CCN(c7cc([C@H](C(=O)N8C[C@H](O)C[C@H]8C(=O)N[C@@H](C)c8ccc(-c9scnc9C)cc8)C(C)C)on7)CC5)CC6)nc4c3F)c12` (relative stereo) [Compound 331] yielded a DC50 greater than 3000 nM.

Turning to `C#Cc1c(F)ccc2cccc(-c3ncc4c(N5CC6CCC(C5)N6)nc(OC[C@@]56CCCN5[C@@H](COC(=O)N5CCN(c7cc([C@H](C(=O)N8C[C@H](O)C[C@H]8C(=O)N[C@@H](C)c8ccc(-c9scnc9C)cc8)C(C)C)on7)CC5)CC6)nc4c3F)c12` (relative stereo) [Compound 334, [(3R,8S)-8-[[4-(3,8-diazabicyclo[3.2.1]octan-3-yl)-7-(8-ethynyl-7-fluoro-1-naphthyl)-8-fluoro-pyrido[4,3-d]pyrimidin-2-yl]oxymethyl]-1,2,3,5,6,7-hexahydropyrrolizin-3-yl]methyl 4-[5-[(1R)-1-[(2S,4R)-4-hydroxy-2-[[(1S)-1-[4-(4-methylthiazol-5-yl)phenyl]ethyl]carbamoyl]pyrrolidine-1-carbonyl]-2-methyl-propyl]isoxazol-3-yl]piperazine-1-carboxylate], the Dmax lay within 60 to 80% and the 50% degradation concentration (DC50) is less than 600 nM.

The compound `CCc1cccc2cc(O)cc(-c3ncc4c(N5CC6CCC(C5)N6)nc(OCCN5C[C@@H]6CN(c7cc(C(C(=O)N8C[C@H](O)C[C@H]8C(=O)N[C@@H](C)c8ccc(-c9scnc9C)cc8)C(C)C)on7)C[C@@H]6C5)nc4c3F)c12` (single isomer, unassigned) [Compound 79, (2S,4R)-1-[(2R*)-2-{3-[(3aR,6aS)-5-{2-[(4-{3,8-diazabicyclo[3.2.1]octan-3-yl}-7-(8-ethyl-3-hydroxynaphthalen-1-yl)-8-fluoropyrido[4,3-d]pyrimidin-2-yl)oxy]ethyl}-octahydropyrrolo[3,4-c]pyrrol-2-yl]-1,2-oxazol-5-yl}-3-methylbutanoyl]-4-hydroxy-N-[(1S)-1-[4-(4-methyl-1,3-thiazol-5-yl)phenyl]ethyl]pyrrolidine-2-carboxamide] came in with a Dmax of 80 to 100% and a half-maximal degradation concentration (DC50) of less than 600 nM.

`C#Cc1c(F)ccc2cc(O)cc(-c3ncc4c(N5CC6CCC(C5)N6)nc(OCCN5CCC6(CC5)CN(c5cc(C(C(=O)N7C[C@H](O)C[C@H]7C(=O)N[C@@H](C)c7ccc(-c8ccnn8C)cc7)C(C)C)on5)C6)nc4c3F)c12` (single isomer, unassigned) [Compound 83, (2S,4R)-1-[(2R*)-2-[3-(7-{2-[(4-{3,8-diazabicyclo[3.2.1]octan-3-yl}-7-(8-ethynyl-7-fluoro-3-hydroxynaphthalen-1-yl)-8-fluoropyrido[4,3-d]pyrimidin-2-yl)oxy]ethyl}-2,7-diazaspiro[3.5]nonan-2-yl)-1,2-oxazol-5-yl]-3-methylbutanoyl]-4-hydroxy-N-[(1S)-1-[4-(1-methyl-1H-pyrazol-5-yl)phenyl]ethyl]pyrrolidine-2-carboxamide] came in with a Dmax of 80 to 100% and a DC50 of less than 600 nM.

Compound `CCc1cccc2cc(O)cc(-c3ncc4c(N5CC6CCC(C5)N6)nc(OC[C@@]56CCCN5[C@@H](COC(=O)N5CCN(c7cc(C(C(=O)N8C[C@H](O)C[C@H]8C(=O)N[C@@H](C)c8ccc(-c9scnc9C)cc8)C(C)C)on7)CC5)CC6)nc4c3F)c12` (single isomer, unassigned) [Compound 108, [(3R,7aS)-7a-{[(4-{3,8-diazabicyclo[3.2.1]octan-3-yl}-7-(8-ethyl-3-hydroxynaphthalen-1-yl)-8-fluoropyrido[4,3-d]pyrimidin-2-yl)oxy]methyl}-hexahydro-1H-pyrrolizin-3-yl]methyl 4-{5-[(2R*)-1-[(2S,4R)-4-hydroxy-2-{[(1S)-1-[4-(4-methyl-1,3-thiazol-5-yl)phenyl]ethyl]carbamoyl}pyrrolidin-1-yl]-3-methyl-1-oxobutan-2-yl]-1,2-oxazol-3-yl}piperazine-1-carboxylate] yielded a Dmax of 80 to 100% and a half-maximal degradation concentration (DC50) of less than 600 nM.

Take `CCc1cccc2cc(O)cc(-c3ncc4c(N5CC6CCC(C5)N6)nc(OC[C@]56CCCN5[C@H](COC(=O)N5CCN(c7cc(C(C(=O)N8C[C@H](O)C[C@H]8C(=O)N[C@@H](C)c8ccc(-c9scnc9C)cc8)C(C)C)on7)CC5)CC6)nc4c3F)c12` (single isomer, unassigned) [Compound 109, [(3S,7aR)-7a-{[(4-{3,8-diazabicyclo[3.2.1]octan-3-yl}-7-(8-ethyl-3-hydroxynaphthalen-1-yl)-8-fluoropyrido[4,3-d]pyrimidin-2-yl)oxy]methyl}-hexahydro-1H-pyrrolizin-3-yl]methyl 4-{5-[(2R*)-1-[(2S,4R)-4-hydroxy-2-{[(1S)-1-[4-(4-methyl-1,3-thiazol-5-yl)phenyl]ethyl]carbamoyl}pyrrolidin-1-yl]-3-methyl-1-oxobutan-2-yl]-1,2-oxazol-3-yl}piperazine-1-carboxylate]: the Dmax was 80 to 100% and the half-maximal degradation concentration (DC50) was less than 600 nM.

With `CCc1cccc2cc(O)cc(-c3ncc4c(N5CC6CCC(C5)N6)nc(OCCN5CCC(CCC6CN(c7cc([C@H](C(=O)N8C[C@H](O)C[C@H]8C(=O)N[C@@H](C)c8ccc(-c9scnc9C)cc8)C(C)C)on7)C6)CC5)nc4c3F)c12` (single isomer, unassigned) [Compound 250, (2S,4R)-1-[(2R*)-2-(3-{3-[2-(1-{2-[(4-{3,8-diazabicyclo[3.2.1]octan-3-yl}-7-(8-ethyl-3-hydroxynaphthalen-1-yl)-8-fluoropyrido[4,3-d]pyrimidin-2-yl)oxy]ethyl}piperidin-4-yl)ethyl]azetidin-1-yl}-1,2-oxazol-5-yl)-3-methylbutanoyl]-4-hydroxy-N-[(1S)-1-[4-(4-methyl-1,3-thiazol-5-yl)phenyl]ethyl] pyrrolidine-2-carboxamide], the greatest degradation seen (Dmax) fell in the range of 80 to 100% and the DC50 is less than 600 nM.

For the origin of these results see patent US20250206732A1, “COMPOUNDS AND METHODS FOR THE TARGETED DEGRADATION OF KRAS” (Arvinas Operations, Inc., priority 2022, published 2025).
